For assay [1], the target named is CSF-1R (Homo sapiens (Human), UniProt P07333). Nature of the assay: Biochemical HTRF kinase assay, CSF-1R.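 Further: enzyme incubated with inhibitor plus a substrate and ATP mix for one hour at room temperature before HTRF detection.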 As to conditions: Table 2; recombinant human CSF-1R. Background: TR-FRET usually uses a lanthanide donor and a delayed reading to cut background.
Assay [2] deals with EOC2 cell. Nature of the assay: Cell proliferation assay, EOC2. It counts as cell-based, mouse. As to conditions: Mus musculus, 72 h, EOC2 cells, 72 hours treatment; read-out: ECO2 EC50.
For assay [3], the system named is Ba/F3_CSF-1R (stably expressing human CSF-1R kinase). Nature of the assay: Cell proliferation assay, Ba/F3_CSF-1R. It counts as cell-based. The conditions noted are these: BaF3, 72 h, Ba/F3_CSF-1R cells, 72 hours treatment; read-out: CSF-1R BaF3 EC50.

A value given as a limit tells only on which side of the number the result lay.

CSF-1R, sequence (P07333 20-972): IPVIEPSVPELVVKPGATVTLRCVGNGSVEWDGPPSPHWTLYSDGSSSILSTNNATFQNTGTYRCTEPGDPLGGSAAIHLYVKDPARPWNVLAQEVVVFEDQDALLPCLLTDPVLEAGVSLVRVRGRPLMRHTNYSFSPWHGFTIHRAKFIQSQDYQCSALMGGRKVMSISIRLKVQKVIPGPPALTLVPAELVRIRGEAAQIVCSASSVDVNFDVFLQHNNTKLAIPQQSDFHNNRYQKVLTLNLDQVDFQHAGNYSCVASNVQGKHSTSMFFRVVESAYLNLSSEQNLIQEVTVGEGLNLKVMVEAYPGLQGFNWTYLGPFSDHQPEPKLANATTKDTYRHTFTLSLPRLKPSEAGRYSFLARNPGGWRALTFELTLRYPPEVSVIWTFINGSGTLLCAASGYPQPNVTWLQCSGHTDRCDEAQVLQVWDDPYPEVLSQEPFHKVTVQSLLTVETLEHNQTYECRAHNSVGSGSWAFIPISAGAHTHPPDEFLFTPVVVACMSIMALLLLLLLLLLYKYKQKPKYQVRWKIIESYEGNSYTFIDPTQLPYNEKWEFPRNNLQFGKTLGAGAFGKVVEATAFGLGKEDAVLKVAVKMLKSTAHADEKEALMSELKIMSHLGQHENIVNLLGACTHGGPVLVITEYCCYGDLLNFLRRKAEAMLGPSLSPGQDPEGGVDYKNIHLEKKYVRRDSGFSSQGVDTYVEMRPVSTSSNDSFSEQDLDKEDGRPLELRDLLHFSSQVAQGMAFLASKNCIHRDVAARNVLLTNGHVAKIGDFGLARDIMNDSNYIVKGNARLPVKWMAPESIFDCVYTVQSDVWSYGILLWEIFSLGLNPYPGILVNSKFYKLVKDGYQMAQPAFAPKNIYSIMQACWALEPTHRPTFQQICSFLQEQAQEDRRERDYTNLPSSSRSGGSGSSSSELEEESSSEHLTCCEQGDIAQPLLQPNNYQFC

For orientation: IC50 means the concentration that inhibits the measured activity by half. For orientation: EC50 means the midpoint of the concentration-response curve. As to `COc1ccc(COc2ncc(Cc3ccnc4cc(OC)cnc34)cc2OC)cc1` [Example 38], in assay [1], the IC50 came to 0.0021 µM. Further, the EC50 came out at 0.0408 µM in assay [2] and 0.21 µM in assay [3].
On to `COc1cnc2c(Cc3cnc(OCc4ccc(OC)nc4)c(OC)c3)ccnc2c1` [Example 39], for which, in assay [1], the IC50 amounted to 0.001 µM. In addition, the EC50 in assay [2] worked out at 0.0321 µM; in assay [3], 0.0465 µM.
For `COc1cnc(COc2ccc(Cc3ccnc4cc(OC)ccc34)cc2OC)nc1` [Example 40], in that order: 0.0937 µM, 0.956 µM and greater than 1 µM.
For `COc1cnc2c(Cc3cnc(OCc4cc(F)cnc4OC)c(OC)c3)ccnc2c1` [Example 41], in that order: 0.0399 µM, greater than 1 µM and greater than 1 µM.
The like results for `COc1cnc2c(Cc3cnc(OCc4cnc(C)s4)c(OC)c3)ccnc2c1` [Example 42] were, in that order, 0.0147 µM, 0.408 µM and 0.51 µM.
For `COc1cnc2c(Cc3cnc(OCc4cnn(C(C)C)c4)c(OC)c3)ccnc2c1` [Example 43], the IC50 in assay [1] is 0.0028 µM. The EC50 in assay [2] and in assay [3] was greater than 1 µM throughout.
With `COc1cnc2c(Cc3cnc(OCc4cnc(OC)cn4)c(OC)c3)ccnc2c1` [Example 44], the IC50 in assay [1] came out at 0.0086 µM. Also, the half-maximal effective concentration (EC50) came out at 0.171 µM in assay [2] and 0.457 µM in assay [3].
With `COc1cnc2c(Cc3cnc(OCc4cc(C)no4)c(OC)c3)ccnc2c1` [Example 46, 5-(((3-methoxy-5-((7-methoxy-1,5-naphthyridin-4-yl)methyl)pyridin-2-yl)oxy)methyl)-3-methylisoxazole], the IC50 in assay [1] was 0.0224 µM. The values for the EC50 in assay [2] and in assay [3] were 0.201 µM and 0.332 µM, respectively.
For `CCn1cc(COc2ncc(Cc3ccnc4cc(OC)cnc34)cc2OC)cn1` [Example 47], the IC50 in assay [1] is 0.002 µM. Further, the EC50 in assay [2] and in assay [3] was greater than 1 µM throughout.
`COc1cnc2c(Cc3cnc(OCc4ccn(C)n4)c(OC)c3)ccnc2c1` [Example 48]: the IC50 in assay [1] was determined as 0.0082 µM. In addition, the EC50 in assay [2] came out at 0.296 µM; in assay [3], 0.586 µM.
With `COc1cnc2c(Cc3cnc(OCc4ccnn4C)c(OC)c3)ccnc2c1` [Example 49], the IC50 in assay [1] amounted to 0.0621 µM. The EC50 in assay [2] and in assay [3] was greater than 1 µM each time.
Take `COc1cnc2c(Cc3cnc(OCc4cnc(OC)nc4)c(OC)c3)ccnc2c1` [Example 50]: in assay [1], the 50% inhibitory concentration (IC50) is 0.0152 µM. For the same compound, the EC50 came out at 0.312 µM in assay [2] and 0.481 µM in assay [3].
Take `COc1cnc2c(Cc3cnc(OCc4cc(C)on4)c(OC)c3)ccnc2c1` [Example 51]: in assay [1], the IC50 came to 0.105 µM. For the same compound, the EC50 was 0.225 µM in assay [2] and 0.59 µM in assay [3].
The like results for `COc1ccc(COc2ncc(Cc3ccnc4cc(OC)ncc34)cc2OC)nc1` [Example 52] were, in that order, 0.0497 µM, 0.209 µM and 0.482 µM.
For `COc1ccc(COc2ncc(Cc3ccnc4ccc(OC)nc34)cc2OC)nc1` [Example 53], in that order: 0.0601 µM, 0.278 µM and 0.338 µM.
For `COc1ccc(COc2ncc(Oc3ccnc4cc(OC)cnc34)cc2OC)nc1` [Example 54, 3-methoxy-8-((5-methoxy-6-((5-methoxypyridin-2-yl)methoxy)pyridin-3-yl)oxy)-1,5-naphthyridine], in that order: 0.0871 µM, 0.317 µM and 0.8 µM.
Take `CCc1cc(COc2ncc(Cc3ccnc4cc(OC)cnc34)cc2OC)on1` [Example 57]: the IC50 in assay [1] was determined as 0.019 µM. Also, the EC50 worked out at 0.0986 µM in assay [2] and 0.178 µM in assay [3].
With `COc1cnc2c(Cc3cnc(OCc4ccc(C(F)F)nc4)c(OC)c3)ccnc2c1` [Example 60], the IC50 in assay [1] turned out to be 0.0054 µM. Further, the results for the EC50 in assay [2] and in assay [3] were 0.0841 µM and 0.0973 µM, respectively.
The like results for `COc1cnc2c(Cc3cnc(OCc4ccc(C(F)(F)F)cn4)c(OC)c3)ccnc2c1` [Example 61] were, in that order, 0.0039 µM, 0.0474 µM and 0.0706 µM.
The like results for `COc1ccc(COc2ncc(Cc3ccnc4cc(C)cnc34)cc2OC)nc1` [Example 63] were, in that order, 0.0167 µM, 0.688 µM and 0.236 µM.
As for `COc1ccc(COc2ncc(Cc3ccnc4cc(F)cnc34)cc2OC)nc1` [Example 64], the IC50 in assay [1] was found to be 0.0218 µM. Moreover, the EC50 is 0.973 µM in assay [2] and 0.4 µM in assay [3].
For `COc1ccc(COc2ncc(Cc3ccnc4cc(C#N)cnc34)cc2OC)nc1` [Example 65, 8-((5-methoxy-6-((5-methoxypyridin-2-yl)methoxy)pyridin-3-yl)methyl)-1,5-naphthyridine-3-carbonitrile], in that order: 0.0269 µM, greater than 1 µM and 0.787 µM.
The like results for `COc1cnc2c(Cc3cnc(OCc4ccc(=O)n(C)c4)c(OC)c3)ccnc2c1` [Example 67] were, in that order, 0.0093 µM, greater than 1 µM and greater than 1 µM.
Turning to `COc1ccc(COc2ncc(Cc3ccnc4cc(OC)cnc34)cc2OC(F)F)nc1` [Example 68, 8-((5-(difluoromethoxy)-6-((5-methoxypyridin-2-yl)methoxy)pyridin-3-yl)methyl)-3-methoxy-1,5-naphthyridine], the IC50 in assay [1] worked out at 0.0992 µM. The EC50 in assay [2] and in assay [3] was greater than 1 µM each time.
Regarding `COc1cnc2c(Cc3cnc(OCc4ccc(C5CC5)cn4)c(OC(F)F)c3)ccnc2c1` [Example 69], in assay [1], the IC50 was found to be 0.203 µM. Moreover, the EC50 in assay [2] and in assay [3] was greater than 1 µM in each case.
As for `COc1cnc2c(Cc3cnc(OCc4nc(C)no4)c(OC)c3)ccnc2c1` [Example 70], the IC50 in assay [1] worked out at 0.272 µM. Moreover, the EC50 in assay [2] and in assay [3] was greater than 1 µM throughout.
With `COCc1ccc(COc2ncc(Cc3ccnc4cc(OC)cnc34)cc2OC)nc1` [Example 71], the IC50 in assay [1] is 0.0254 µM. The EC50 amounted to 0.168 µM in assay [2] and 0.359 µM in assay [3].
For `COc1cnc2c(Cc3cnc(OCc4cc5n(n4)CCN(C)C5)c(OC)c3)ccnc2c1` [Example 75], in that order: 0.032 µM, 0.448 µM and 0.949 µM.
With `COc1cnc2c(Cc3cnc(OCc4ccc(C5COC5)cn4)c(OC)c3)ccnc2c1` [Example 76], in assay [1], the IC50 was determined as 0.0136 µM. In addition, the EC50 in assay [2] was found to be 0.0821 µM; in assay [3], 0.301 µM.
`COc1ccc(COc2ncc(C(C)c3ccnc4cc(OC)cnc34)cc2OC)nc1` (stereo not drawn) [Example 77]: the IC50 in assay [1] was 0.101 µM. In addition, the figures for the EC50 in assay [2] and in assay [3] were 0.36 µM and 0.543 µM, respectively.
For `COc1ccc(COc2ncc(C(F)c3ccnc4cc(OC)cnc34)cc2OC)nc1` (stereo not drawn) [Example 84, 8-(fluoro(5-methoxy-6-((5-methoxypyridin-2-yl)methoxy)pyridin-3-yl)methyl)-3-methoxy-1,5-naphthyridine], in that order: 0.0284 µM, greater than 1 µM and greater than 1 µM.
As to `COc1cnc2c(Cc3cnc(OCc4ccc(CN(C)C)cn4)c(OC)c3)ccnc2c1` [Example 85], the IC50 in assay [1] is 0.11 µM. Moreover, the EC50 in assay [2] and in assay [3] was greater than 1 µM in each case.
As to `COc1cnc2c(Cc3cnc(OCc4cc5n(n4)CCCO5)c(OC)c3)ccnc2c1` [Example 86], the IC50 in assay [1] worked out at 0.0044 µM. For the same compound, the figures for the EC50 in assay [2] and in assay [3] were 0.183 µM and 0.29 µM, respectively.
As to `COc1cnc2c(Cc3cnc(OCc4ccc(C5CN(C)C5)cn4)c(OC)c3)ccnc2c1` [Example 89], the IC50 in assay [1] came out at 0.286 µM. In addition, the EC50 in assay [2] and in assay [3] was greater than 1 µM each time.
`COc1cnc2c(Cc3cnc(OCc4cc(C5COC5)no4)c(OC)c3)ccnc2c1` [Example 90]: in assay [1], the IC50 was 0.0174 µM. Further, the EC50 in assay [2] was 0.154 µM; in assay [3] it was 0.282 µM.
For `COc1cnc2c(Cc3cnc(OCc4cc(C)n(C5CN(C)C5)n4)c(OC)c3)ccnc2c1` [Example 91], in that order: 0.0406 µM, 0.388 µM and 0.753 µM.
Regarding `COc1cnc2c(Cc3cnc(OCc4cnc5c(c4)CCC5OC)c(OC)c3)ccnc2c1` (stereo not drawn) [Example 92], the IC50 in assay [1] was 0.0018 µM. For the same compound, the EC50 in assay [2] was found to be 0.026 µM; in assay [3], 0.0679 µM.
The like results for `COc1cnc2c(Cc3cnc(OCc4cn5c(n4)CN(C)CC5)c(OC)c3)ccnc2c1` [Example 94] were, in that order, 0.014 µM, greater than 1 µM and greater than 1 µM.
Consider `[2H]C([2H])(c1cnc(OCc2ccc(OC)cn2)c(OC)c1)c1ccnc2cc(OC)cnc12` [Example 95], for which the 50% inhibitory concentration (IC50) in assay [1] is 0.0034 µM. Besides, the EC50 in assay [2] stood at 0.0543 µM; in assay [3] it was 0.0422 µM.
For `COCc1cc(COc2ncc(Cc3ccnc4cc(OC)cnc34)cc2OC)nn1C` [Example 96], in that order: 0.0162 µM, 0.19 µM and 0.234 µM.
For `COc1cnc2c(Cc3cnc(OCc4cc(C(F)(F)F)n(C)n4)c(OC)c3)ccnc2c1` [Example 97], in that order: 0.002 µM, 0.0827 µM and 0.034 µM.
With `COc1cnc2c(Cc3cnc(OCc4cc5n(n4)CCOC5C)c(OC)c3)ccnc2c1` (stereo not drawn) [Example 98], the IC50 in assay [1] worked out at 0.0047 µM. For the same compound, the EC50 in assay [2] amounted to 0.0547 µM; in assay [3] it was 0.0573 µM.
For `COc1cnc2c(Cc3cnc(OCc4cc5n(n4)CCOC5(C)C)c(OC)c3)ccnc2c1` [Example 99], in assay [1], the IC50 came to 0.0056 µM. Further, the EC50 came to 0.0517 µM in assay [2] and 0.0591 µM in assay [3].
For `COc1cnc2c(Cc3cnc(OCc4cc(C(C)OC)n(C)n4)c(OC)c3)ccnc2c1` (stereo not drawn) [Example 102], in that order: 0.004 µM, 0.077 µM and 0.134 µM.
